In US11034725B2, “Compositions and methods for treating cardiovascular disease” (Genentech, Inc., priority 2016, dated 2021):
Entries after “also recorded” stand apart in the source; their conditions may differ. Like-named read-outs stand apart in the source and are kept apart here. Square brackets hold non-standard residues; d marks the D form. Peptide text beside a SMILES is read from it. hArg = N=C(N)NCCCC[C@H](N)C(=O)O

B1: PCSK9-AAA: triple mutant PCSK9-R167A:R215A:R218A (protein, UniProt Q8NBP7 153-692, looked up, variant R167A R215A R218A)
Proprotein convertase …: SIPWNLERITPPRYAADEYQPPDGGSLVEVYLLDTSIQSDHREIEGRVMVTDFENVPEEDGTAFHAQASKCDSHGTHLAGVVSGRDAGVAKGASMRSLRVLNCQGKGTVSGTLIGLEFIRKSQLVQPVGPLVVLLPLAGGYSRVLNAACQRLARAGVVLVTAAGNFRDDACLYSPASAPEVITVGATNAQDQPVTLGTLGTNFGRCVDLFAPGEDIIGASSDCSTCFVSQSGTSQAAAHVAGIAAMMLSAEPELTLAELRQRLIHFSAKDVINEAWFPEDQRVLTPNLVAALPPSTHGAGWQLFCRTVWSAHSGPTRMATAVARCAPDEELLSCSSFSRSGKRRGERMEAQGGKLVCRAHNAFGGEGVYAIARCCLLPQANCSVHTAPPAEASMGTRVHCHQQGHVLTGCSSHWEVEDLGTHKPPVLRPRGQPNQCVGHREASIHASCCHAPGLECKVKEHGIPAPQEQVTVACEEGWTLTGCSALPGTSHVLGAYAVDNTCVVRSRDVSTTGSTSEGAVTAVAICCRSRHLAQASQELQ

Experiments:
[1] = system: contaminating protease; test: PCSK9 cleavage under crystallization conditions and inhibition by serine protease inhibitors; assay type: biochemical; conditions: serpins 150 μM, Aprotinin 1.5 mM, 9 days, room temperature
Method: After SDS-PAGE of the samples, the 60 kDa band comprising the PCSK9 catalytic domain and Cys-rich domain (CRD) was analyzed by N-terminal sequencing and the results reported in Table 2.
Samples were analyzed by SDS-PAGE and transferred to a nitrocellulose membrane using iBlot (Invitrogen). Proteins were then probed with a polyclonal rabbit antibody (1:3000) raised against the PCSK9 N-terminal peptide (^153[…]^168 (SEQ ID NO: 5)), followed with HRP-conjugated donkey anti-rabbit antibody (1:5000, GE Healthcare) using iBind (Invitrogen). PCSK9 signals were detected by ECL (GE Healthcare) and visualized by autoradiography. The polyclonal rabbit antibody against the PCSK9 N-terminal peptide ^153[…]^168 (SEQ ID NO: 5) was generated by immunizing rabbits with the synthesized peptide […] (SEQ ID NO: 285), which contained an extra Cys residue at the N-terminus for conjugation to KLH. The polyclonal antibody IgG was purified from rabbit serum using affinity chromatography with resin-immobilized peptide […] (SEQ ID NO: 285) (YenZym Antibodies, LLC, San Francisco, Calif.).

[2] = target: T1, PCSK9 (Homo sapiens, UniProt Q8NBP7); test: PCSK9/EGF(A) TR-FRET binding assay
T1 sequence (Q8NBP7 153-692): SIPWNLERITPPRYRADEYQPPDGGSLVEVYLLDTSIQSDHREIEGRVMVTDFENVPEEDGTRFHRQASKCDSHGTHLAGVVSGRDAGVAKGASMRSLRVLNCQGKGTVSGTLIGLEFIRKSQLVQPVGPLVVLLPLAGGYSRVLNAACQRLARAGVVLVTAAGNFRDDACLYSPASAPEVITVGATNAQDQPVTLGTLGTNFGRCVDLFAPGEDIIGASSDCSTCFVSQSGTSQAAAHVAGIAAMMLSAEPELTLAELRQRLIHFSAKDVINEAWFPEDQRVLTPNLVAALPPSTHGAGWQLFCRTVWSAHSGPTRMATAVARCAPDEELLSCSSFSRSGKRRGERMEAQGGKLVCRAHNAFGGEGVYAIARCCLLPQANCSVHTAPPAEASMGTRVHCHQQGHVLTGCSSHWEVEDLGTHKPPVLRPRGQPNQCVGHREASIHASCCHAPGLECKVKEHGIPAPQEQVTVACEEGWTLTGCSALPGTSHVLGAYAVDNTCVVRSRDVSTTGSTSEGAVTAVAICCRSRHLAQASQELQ
T1 sequence (Q8NBP7 31-152 partner limits assumed): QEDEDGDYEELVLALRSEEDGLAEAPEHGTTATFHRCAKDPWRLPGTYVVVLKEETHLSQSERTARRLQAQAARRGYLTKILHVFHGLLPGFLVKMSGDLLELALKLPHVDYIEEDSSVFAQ

[3] = target: T2, PCSK9Δhelix (Homo sapiens, UniProt Q8NBP7); test: PCSK9Δhelix/Ab20 TR-FRET binding assay
T2 construct: Human PCSK9 construct M1-Q692 with an engineered TEV site (residue deletion Y166, R167); made in house; host or cells: CHO
T2 sequence (Q8NBP7 with tags, fused parts or gaps limits assumed): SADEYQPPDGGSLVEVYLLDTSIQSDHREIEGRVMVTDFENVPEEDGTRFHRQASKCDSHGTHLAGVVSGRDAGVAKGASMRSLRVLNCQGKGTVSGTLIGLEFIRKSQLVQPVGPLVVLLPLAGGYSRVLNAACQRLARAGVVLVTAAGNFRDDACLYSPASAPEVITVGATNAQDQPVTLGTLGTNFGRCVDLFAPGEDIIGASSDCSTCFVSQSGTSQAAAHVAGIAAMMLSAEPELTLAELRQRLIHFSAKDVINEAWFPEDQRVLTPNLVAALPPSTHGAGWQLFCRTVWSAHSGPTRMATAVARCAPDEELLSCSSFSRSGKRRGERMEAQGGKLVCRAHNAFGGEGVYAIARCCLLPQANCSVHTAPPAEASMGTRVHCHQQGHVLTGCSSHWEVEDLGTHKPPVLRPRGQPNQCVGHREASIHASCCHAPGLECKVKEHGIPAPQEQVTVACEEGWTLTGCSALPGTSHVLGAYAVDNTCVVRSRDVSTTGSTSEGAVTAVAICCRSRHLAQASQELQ
T2 sequence (Q8NBP7 31-152 partner limits assumed): as the sequence (Q8NBP7 31-152 partner limits assumed) above

[4] = system: His-EGF(A)-Fc; test: His-EGF(A)-Fc TR-FRET counterscreen; conditions: for IC50: TR-FRET counterscreen, Table 8E, additional compounds
[5] = target: T1, PCSK9; test: PCSK9/LDLR-Fc TR-FRET assay (LDLR assay); assay type: binding; conditions: for IC50: Table 11, LDLR-Fc, average ±S.D. of three experiments
Method: In black 1536-well assay plates (MaKO, Aurora® Microplates, Whitefish, Mont.), 40 nL of peptide in DMSO were preincubated with 2 μL His-tagged PCSK9 plus anti-His-allophycocyanin in assay buffer (50 mM Tris-HCl, pH 7.5, 150 mM NaCl, 2 mM CaCl2, 0.01% Tween®-20, 0.1% bovine gamma globulins, and protease inhibitor cocktail) for 30 min. Then 2 μL of Fc-tagged ligand and anti-Fc-europium in assay buffer were added and allowed to incubate for 2 h. The PCSK9 and ligand conditions for each assay are as follows: 10 nM C-terminal (His)8-tagged PCSK9 (“(His)8” disclosed as SEQ ID NO: 304) and 12 nM EGF(A)-Fc for the EGF(A) assay, 10 nM C-terminal (His)8-tagged PCSK9 (“(His)8” disclosed as SEQ ID NO: 304) and 2.5 nM LDLR-Fc for the LDLR assay, 1.25 nM C-terminal (His)8-tagged PCSK9Δhelix (“(His)8” disclosed as SEQ ID NO: 304) and 0.75 nM Ab20 for the Ab20 assay, and 2 nM His-EGF(A)-Fc alone for the counterscreen. In all assays, anti-His-allophycocyanin and anti-Fc-europium were used at 20 nM and 2 nM, respectively. Fluorescence was measured with excitation at 340 nm and emission at 671 nm and 618 nm. The TR-FRET ratio was calculated as fluorescence at 671 nm/fluorescence at 618 nm. The ratios were normalized to controls and plotted against peptide concentration to determine IC50 values (Screener Analyzer, Genedata, Basel, CH). The peptides were evaluated in three separate experiments per assay with 10-point titrations and n=2 per concentration. The values presented are the average ±S.D. of three independent experiments.

[6] = target: T1, PCSK9; test: Cell surface LDLR assay with HepG2 cells; assay type: cell-based
Method: HepG2 cells (ATCC; Manassas, Va.) were seeded into 48 well plates (Corning; Corning, N.Y.) at 1×10^5 cells per well in high glucose medium (DMEM, Gibco; Carlsbad, Calif.) containing 2 mM glutamine (Sigma), penicillin/streptomycin (Gibco) and 10% FBS (Sigma; St. Louis, Mo.) and incubated overnight. Then the medium was changed to DMEM containing 10% lipoprotein deficient serum (LPDS, Sigma). After 24 h, 15 μg/mL PCSK9 was incubated with peptides or Fab33 for 30 min, added to the cells and incubated at 37° C. for 4 h. Cells were rinsed with PBS and detached using Cell Dissociation Buffer in PBS (Gibco). After centrifugation, the resuspended cells were incubated with 1:20 anti LDLR antibody (Progen Biotechnik; Heidelberg, Germany) on ice for 10 min. The samples were then washed with PBS and incubated with 1:200 diluted goat anti mouse IgG (H+L) Alexa Fluor 488 (Invitrogen; Carlsbad, Calif.) on ice for 5 min. After two PBS washes, cells were re suspended in PBS containing 2.5 μg/mL of propidium iodide and analyzed on a dual laser flow cytometer (FACScan, Becton Dickinson; Franklin Lakes, N.J.). Relative fluorescence units (RFUs) were used to quantify LDLR expression levels on the HepG2 cell surface. Cell surface LDLR levels were expressed as percent of LDLR levels measured in the absence of PCSK9 (=control).
The effect of Compound 229 on PCSK9-mediated LDL receptor degradation was measured in a HepG2 cell assay as previously described (Zhang et al., J Biol Chem. 2014 Jan. 10; 289(2):942-55). Peptides at various concentrations were preincubated with 15 μg/mL PCSK9 in the presence of 0.5% DMSO for 30 min prior to the addition to cells. After a 4 h incubation, the cells were processed for measurements of LDL receptor surface levels by flow cytometry as described (Zhang et al., J Biol Chem. 2014 Jan. 10; 289(2):942-55) (FIG. 37).

[7] = target: T1, PCSK9; test: SPR affinity measurements of peptide binding (Example 8); conditions: Example 8, with standard error; read-out: KD, binding affinity to PCSK9 in SPR experiments
[8] = target: T3, LDLR ectodomain (Homo sapiens, UniProt P01130); test: Biolayer interferometry binding of PCSK9 mutants to LDLR ectodomain
T3 construct: purchased R & D Systems
T3 sequence (P01130 22-788 limits assumed): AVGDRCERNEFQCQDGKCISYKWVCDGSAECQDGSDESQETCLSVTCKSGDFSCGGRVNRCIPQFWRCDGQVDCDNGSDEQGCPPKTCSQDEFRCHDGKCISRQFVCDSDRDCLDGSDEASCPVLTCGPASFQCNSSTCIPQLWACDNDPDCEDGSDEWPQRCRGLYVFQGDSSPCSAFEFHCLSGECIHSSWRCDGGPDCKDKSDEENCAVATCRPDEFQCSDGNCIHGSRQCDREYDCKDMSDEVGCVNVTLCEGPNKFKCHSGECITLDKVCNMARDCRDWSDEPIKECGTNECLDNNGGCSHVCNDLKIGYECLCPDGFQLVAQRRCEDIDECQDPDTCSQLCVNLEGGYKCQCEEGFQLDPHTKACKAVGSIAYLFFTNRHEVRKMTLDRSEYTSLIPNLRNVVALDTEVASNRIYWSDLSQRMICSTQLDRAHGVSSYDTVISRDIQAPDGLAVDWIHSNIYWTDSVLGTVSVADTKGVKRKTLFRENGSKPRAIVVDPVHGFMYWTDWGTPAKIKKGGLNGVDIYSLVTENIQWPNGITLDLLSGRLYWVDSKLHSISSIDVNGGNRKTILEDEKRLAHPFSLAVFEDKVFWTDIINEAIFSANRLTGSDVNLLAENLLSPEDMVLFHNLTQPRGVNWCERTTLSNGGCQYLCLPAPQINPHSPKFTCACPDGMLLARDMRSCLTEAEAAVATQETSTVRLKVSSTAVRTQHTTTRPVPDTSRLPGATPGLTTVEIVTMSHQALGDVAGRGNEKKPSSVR
Text: In further experiments the previously described PCSK9 mutant PCSK9-R215A:R218A (=PCSK9-AA) (Lipari et al. J Biol Chem. 2012 Dec. 21; 287(52):43482-91), in which the “furin cleavage loop” residues had been changed to Alanine, was used in order to prevent protease cleavage at the susceptible residues R215 and R218. […] Therefore, to direct the FXIa cleavage specifically to the P′ alpha helix residue R160 the triple mutant PCSK9-R167A:R215A:R218A (=PCSK9-AAA) was produced. The binding affinities of PCSK9-AAA and PCSK9-AA to the LDLR ectodomain (R & D Systems) were determined by biolayer interferometry as described (Lipari et al. J Biol Chem. 2012 Dec. 21; 287(52):43482-91).

[9] = TR-FRET, Table 8E, additional compounds, read-out: PCSK9/EGF(A) IC50
[10] = Table 11, average ±S.D. of three experiments, read-out: EGF(A) IC50
[11] = TR-FRET, Table 8E, additional compounds, read-out: PCSK9Δhelix/Ab20 IC50
[12] = Table 11, average ±S.D. of three experiments, read-out: Ab20 IC50

Kd [8] [nM]	Molecule	inhibition of P′ helix cleavage of the Fab33:PCSK9 complex by contaminating protease [1]	inhibition in the PCSK9/EGF(A) binding assay [2]	IC50 [2, 9] [nM]	IC50 [2, 10] [nM]	IC50 [3, 11] [nM]	IC50 [3, 12] [nM]	IC50 [4] [nM]	inhibition of LDLR-Fc binding to PCSK9 [5]	IC50 [5] [nM]	Kd [7] [nM]	other results
	alpha1-antitrypsin: more elastase-specific serpin	did not inhibit cleavage										
	CC[C@H](C)[C@H](NC(=O)[C@H](CCCCNC(=N)N)NC(=O)[C@@H](NC(=O)[C@H](CC(C)C)NC(=O)[C@H](CC(N)=O)NC(=O)[C@H](Cc1c[nH]c2ccccc12)NC(=O)CNC(=O)[C@@H]1CCCN1C(=O)[C@H](Cc1ccccc1)NC(=O)[C@H](CO)NC(=O)[C@H](CCC(=O)O)NC(=O)[C@H](CCSC)NC(C)=O)C(C)C)C(=O)NCC(=O)N[C@@H](CC(C)C)C(=O)N[C@@H](CC(C)C)C(=O)N[C@@H](CCCNC(=N)N)C(N)=O [Compound 229] (Ac-MESFPGWNLV[hArg]IGLLR-NH2)		inhibited; also recorded: inhibition	810	8300 ± 100	8100	840 ± 80	≥ 50000	inhibited; also recorded: inhibition	25000 ± 800	940 ± 10	inhibition in the PCSK9Δhelix/Ab20 binding assay [3]: inhibition; improvement of affinity to PCSK9Δhelix versus Compound 192 ([3]; Table 11): more than 6 fold; response in the His-EGF(A)-Fc counterscreen [4]: without interference; inhibition of PCSK9-mediated LDLR degradation in HepG2 cells [6]: concentration-dependent manner; also recorded: concentration-dependent inhibition; surface LDLR levels restored ([6]; HepG2 cells, maximal restoration, percent of control without PCSK9): ≤ 70%
260	PCSK9-AA: PCSK9 mutant in which the furin cleavage loop residues R215 and R218 had been changed to Alanine											
	CC[C@H](C)[C@H](NC(=O)[C@H](CCCCNC(=N)N)NC(=O)[C@@H](NC(=O)[C@H](CC(C)C)NC(=O)[C@H](CC(N)=O)NC(=O)[C@H](Cc1c[nH]c2ccccc12)NC(=O)CNC(=O)[C@@H]1CCCN1C(=O)[C@H](Cc1ccccc1)NC(=O)[C@H](C)NC(=O)[C@H](Cc1ccccc1)NC(=O)[C@H](CO)NC(C)=O)C(C)C)C(=O)NCC(=O)N[C@@H](CC(C)C)C(=O)N[C@@H](CC(C)C)C(=O)N[C@@H](CCCNC(=N)N)C(N)=O [Compound 228] (Ac-SFAFPGWNLV[hArg]IGLLR-NH2)		inhibited	1300	13200 ± 800	13000	1370 ± 120	≥ 50000	inhibited	30400 ± 1100	2800 ± 50	
	antithrombin III	cleavage was prevented; also recorded: able to prevent proteolytic cleavage										
214	B1											
